Where no end group is shown, it is not given here.
How the values were obtained:
[1] = tested on: ovarian clear cell carcinoma cell lines with known ARID1A mutational status; test: colony formation assay, panel of ovarian clear cell carcinoma cell lines with or without ARID1A mutation; format: cell-based, human; conditions: 12 days
Experimental: After 12 days culture, integrated density of colony formed by the indicated cells was quantified using NIH Image J software, and values were normalized to vehicle control. Data represent triplicates from independent experiments. Error bars represent S.E.M. The p-value was calculated via two-tailed t-test.
Indicated ovarian clear cell carcinoma cell lines with known ARID1A mutational status were treated with the indicated concentration of HDAC6 inhibitor CAY10603 or vehicle control in a colony formation assay. After 12 days culture, integrated density of colony formed by the indicated cells was quantified using NIH Image J software, and values were normalized to vehicle control. Data represent triplicates from independent experiments. Error bars represent S.E.M.
Colony formation assays were performed as follows. Cell lines were infected with lentivirus pLKO.1-shRNAs or pLKO.1-control with puromycin selection marker. Infected cells were selected with 1 μg/mL of puromycin for 72 hours and the selected cells were seeded in 12-well or 24-well plates. Cell medium was changed every three days with appropriate drug doses for 14 days or until control wells became confluent. Colonies were washed twice with PBS and fixed with 10% methanol and 10% acetic acid in distilled water. Fixed colonies were stained with 0.005% crystal violet. Integrated density was measured using NIH ImageJ software.

[2] = tested on: p53 target genes (BAX, PUMA, NOXA, CDKN1A) in ARID1A-mutated TOV21G cells; test: RNA-seq of p53 target genes; format: cell-based, human; conditions: 312 nM
Description: RNA was extracted and utilized for next generation sequencing (RNA-seq). Expression of p53 target genes known to regulate apoptosis such as BAX, PUMA and NOXA, and known to regulate cell cycle arrest such as CDKN1A were not altered by HDAC6 inhibition in RNA-seq analysis.

human HDAC6 = target: T1, human HDAC6 (Homo sapiens, UniProt Q9UBN7); test: in vitro biochemical HDAC6 deacetylation assay (LC-MS)
T1 construct: made in house
T1 sequence (Q9UBN7 1-1215): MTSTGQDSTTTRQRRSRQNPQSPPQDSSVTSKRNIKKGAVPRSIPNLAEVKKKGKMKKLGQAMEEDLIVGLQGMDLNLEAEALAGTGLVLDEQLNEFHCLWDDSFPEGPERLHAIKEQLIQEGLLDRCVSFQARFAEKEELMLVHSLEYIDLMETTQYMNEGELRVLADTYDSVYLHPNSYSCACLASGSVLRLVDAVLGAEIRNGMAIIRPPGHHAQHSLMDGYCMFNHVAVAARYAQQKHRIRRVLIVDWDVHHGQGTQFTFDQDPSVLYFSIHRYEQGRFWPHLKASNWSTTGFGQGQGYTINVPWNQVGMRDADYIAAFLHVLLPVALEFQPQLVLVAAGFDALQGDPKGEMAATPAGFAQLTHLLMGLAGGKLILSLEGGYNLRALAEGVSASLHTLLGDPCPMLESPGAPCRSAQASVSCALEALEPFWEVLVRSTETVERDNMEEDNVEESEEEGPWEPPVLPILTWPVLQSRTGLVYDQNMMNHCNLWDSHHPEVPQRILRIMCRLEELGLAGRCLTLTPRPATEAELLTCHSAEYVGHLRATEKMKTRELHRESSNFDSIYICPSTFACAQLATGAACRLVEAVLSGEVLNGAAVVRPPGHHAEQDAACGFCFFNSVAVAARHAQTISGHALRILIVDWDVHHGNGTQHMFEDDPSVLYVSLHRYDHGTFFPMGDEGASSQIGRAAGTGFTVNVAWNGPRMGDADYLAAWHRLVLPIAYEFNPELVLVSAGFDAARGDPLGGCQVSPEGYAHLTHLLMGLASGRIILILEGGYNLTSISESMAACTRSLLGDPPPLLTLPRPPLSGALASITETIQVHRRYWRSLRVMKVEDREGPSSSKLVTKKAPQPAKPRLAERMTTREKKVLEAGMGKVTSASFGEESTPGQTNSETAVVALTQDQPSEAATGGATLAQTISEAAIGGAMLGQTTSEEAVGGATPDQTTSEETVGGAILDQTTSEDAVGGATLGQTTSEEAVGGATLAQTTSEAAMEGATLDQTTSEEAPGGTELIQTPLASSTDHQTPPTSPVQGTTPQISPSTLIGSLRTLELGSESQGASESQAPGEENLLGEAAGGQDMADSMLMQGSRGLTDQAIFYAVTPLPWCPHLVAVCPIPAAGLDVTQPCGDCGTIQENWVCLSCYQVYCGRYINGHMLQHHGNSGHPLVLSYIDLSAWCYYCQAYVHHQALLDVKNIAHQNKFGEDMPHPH
Experimental: Deacetylation reactions were detected by discontinuous liquid chromatography-mass spectrometry (LC-MS). […] All assays were performed in triplicates.
In vitro biochemical HDAC6 deacetylation assays were performed as follows. Activity assay with human HDAC6 was based on a discontinuous liquid chromatography-mass spectrometry (LC-MS) assay as reported in Hai and Christianson, 2016. Briefly, 0.05 μM of HDAC6 was incubated with 100 μM of substrate Ac-LHSGTAK(ac)SVT-COOH in HEPES buffer [20 mM HEPES (pH 7.5), 100 mM NaCl, 5 mM KCl, 1 mM MgCl2] for 20 min at room temperature, and the reaction was quenched by the addition of acetonitrile (equal volume to the reaction solution). […] The assay was run in the presence of 10 μM of HDAC6 specific inhibitor ACY-1215 as a negative control. All the assays were performed in triplicates. The peptide was custom synthesized by Genscript. The human HDAC6 construct was expressed and purified as described in Hai and Christianson, 2016.

[3] = tested on: ARID1A-mutated TOV21G and OVISE cells; test: apoptosis (Annexin V, cleaved caspase 3, cleaved PARP p85) in ARID1A-mutated cells; format: cell-based, human
Experimental: FIG. 10 illustrates the finding that HDAC6 inhibition induces apoptosis in ARID1A-inactivated cells. […] Cells were collected and stained for apoptotic markers Annexin V. Apoptotic cells were quantified. Error bars represent standard error of the mean. The p-value was calculated via a two-tailed t-test.
FIG. 11 illustrates the results of the experiments of FIG. 10, but examined for apoptotic markers cleaved caspase 3 and cleaved PARP p85 by immunoblot. GAPDH expression was used as a loading control.
Cells were collected, incubated with an Annexin V-FITC antibody and subjected to flow cytometry analysis. Annexin V-positive cells (apoptotic) were measured with FloJo software. Mean of three independent experiments with S.E.M.
FIG. 78 illustrates percent apoptosis based on Annexin V staining in ARID1A mutated TOV21G cells treated with 1.25 μM ACY1215, 20 μM pan-caspase inhibitor Q-VD-Oph, or a combination for 48 hrs.
FIG. 79 illustrates percent apoptosis based on Annexin V staining in ARID1A mutated TOV21G cells treated with 1.25 μM ACY1215 for 48 hrs with or without knockdown of caspase 3 or caspase 9.
For immunoblotting, protein was isolated as described in Bitler et al. Nat. Med. 2015, 21, 231-238. Briefly, protein was extracted with RIPA buffer (150 mM NaCl, 1% NP40, 0.5% sodium deoxycholate, 0.1% SDS, 50 mM Tris pH 8.0, and 1 mM PMSF). Protein was separated on a SDS-PAGE and transferred to PVDF membrane. For immunoblot of p53 post-translation modifications, cells were treated with a proteasome inhibitor MG132 (10 μM) to stabilize p53 protein.
Annexin V and mitochondria membrane potentials were measured as follows. Phosphatidylserine externalization was detected using an Annexin V staining kit (Life Technologies) following the manufacturer's instructions. To measure change in mitochondria membrane potential cells were treated with 200 nM of tetramethylrhodamine, ethyl ester (TMRE; Abcam) for 15 min at 37° C. Annexin V and TMRE-positive cells were detected using the LSR18 and analyzed with the FlowJo software module.

**Q.** What does the source list for `CC(C)(C)OC(=O)Nc1ccc(-c2cc(C(=O)NCCCCCCC(=O)NO)no2)cc1` [CAY10603, tert-butyl 4-(3-((7-(hydroxyamino)-7-oxoheptyl)carbamoy)isoxazol-5-yl)phenylcarbamate]?
**A.** sensitivity of ARID1A-mutated cells compared with ARID1A wild-type cells [1]: more sensitive; expression of p53 target genes (BAX, PUMA, NOXA, CDKN1A) [2]: not altered

**Q.** How did the “specific activity of HDAC6 with this substrate” value (human HDAC6) turn out when Ala-Lys(Ac)-Ala-NH2 was run?
**A.** 10.5±0.5 nmol product·nmol enzyme^−1·min^−1

**Q.** How did the “effect on apoptosis induced by ACY1215” value ([3]; TIP60 inhibitor with ACY1215) turn out when `c1cc(SSc2ccns2)sn1` [NU9056] was run?
**A.** suppressed apoptosis

**Q.** And the p53K120Ac levels ([3]; TIP60 inhibitor with ACY1215)?
**A.** reduction of the p53K120Ac levels

**Q.** With `CC(C)[C@H](NC(=O)c1ccc2ccccc2n1)C(=O)N[C@@H](CC(=O)O)C(=O)COc1c(F)cccc1F` [Q-VD-Oph] as the compound, how does the “effect on apoptosis induced by ACY1215” value ([3]; TOV21G, 20 μM Q-VD-Oph with 1.25 μM ACY1215, 48 hrs) read?
**A.** significantly suppressed the apoptosis

**Q.** With Ac-LHSGTAK(Ac)SVT as the compound, how does the “specific activity of HDAC6 with this substrate” value (human HDAC6) read?
**A.** 3.4±0.4 nmol product·nmol enzyme^−1·min^−1

Reference: patent US20190192521A1, “Methods of Treating Arid1A-Mutated Cancers With HDAC6 Inhibitors and EZH2 Inhibitors” (The Wistar Institute of Anatomy and Biology, priority 2016, published 2019)
